Laboratory results published in patent publication US20260274892A1, “MACROCYCLIC BROAD SPECTRUM ANTIBIOTICS” (RQx Pharmaceuticals, Inc., priority 2017, published 2026).

Tests used:
[1] = tested on: Methicillin Resistant Staphylococcus aureus strain USA 200; test: Minimum inhibitory concentration (MIC), CLSI broth micro-dilution, S. aureus; type: cell-based; settings: Staphylococcus aureus, MRSA / USA200, MRSA USA 200, cation adjusted Mueller Hinton Broth + 0.002% Tween-80, 35° C., 22 hours
Outline: (§1)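 Colonies grown 20 h at 35° C on Trypticase Soy agar (MRSA) or Luria agar (E. coli) were suspended in cation-adjusted Mueller Hinton broth with 0.002% Tween-80. Suspensions were added at OD600 0.0005 to 10-point twofold compound dilutions, then incubated 22 h at 35° C.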

[2] = tested on: Escherichia coli ATCC 25922; test: Minimum inhibitory concentration (MIC), CLSI broth micro-dilution, E. coli; type: cell-based; settings: Escherichia coli, ATCC25922, 22 h
Outline: as §1

[3] = Table 6, cation adjusted Mueller Hinton Broth + 0.002% Tween-80, 35° C.
[4] = Table 8, cation adjusted Mueller Hinton Broth + 0.002% Tween-80, 35° C.

SMILES	MIC ([1]; Table 6) [µM]	MIC [2, 3] [µM]	MIC ([1]; Table 8) [µM]	MIC [2, 4] [µM]
CCCCCOc1ccc(-c2nc(C)c(C(=O)N[C@@H](CCN)C(=O)N(C)[C@@H]3C(=O)N[C@@H](C)C(=O)N[C@H](C(=O)NCC#N)Cc4ccc(OCCN)c(c4)-c4cc3ccc4O)c(C)n2)cc1 (racemic) [Compound 536, rac-(8S,11S,14S)-3-(2-aminoethoxy)-N-(cyanomethyl)-18-hydroxy-11-methyl-14-[methyl-[rac-(2S)-4-amino-2-[[4,6-dimethyl-2-(4-pentoxyphenyl)pyrimidine-5-carbonyl]amino]butanoyl]amino]-10,13-dioxo-9,12-diazatricyclo[13.3.1.12,6]icosa-1(18),2(20),3,5,15(19),16-hexaene-8-carboxamide]	0.016	0.13		
Cc1nc(-c2ccc(OCCC(C)(C)C)cc2)nc(C)c1C(=O)N[C@@H](CCN)C(=O)N(C)[C@@H]1C(=O)N[C@@H](C)C(=O)N[C@H](C(=O)NCC#N)Cc2ccc(O)c(c2)-c2cc1ccc2OCCN (racemic) [Compound 539, rac-(8S,11S,14S)-18-(2-aminoethoxy)-N-(cyanomethyl)-3-hydroxy-11-methyl-14-[methyl-[rac-(2S)-4-amino-2-[[2-[4-(3,3-dimethylbutoxy)phenyl]-4,6-dimethyl-pyrimidine-5-carbonyl]amino]butanoyl]amino]-10,13-dioxo-9,12-diazatricyclo[13.3.1.12,6]icosa-1(18),2(20),3,5,15(19),16-hexaene-8-carboxamide]	0.023	0.15		
Cc1nc(-c2ccc(O)cc2)nc(C)c1C(=O)N[C@@H](CCN)C(=O)N(C)[C@@H]1C(=O)N[C@@H](C)C(=O)N[C@H](C(=O)NCC#N)Cc2ccc(OCCN)c(c2)-c2cc1ccc2OCCN (racemic) [Compound 542, rac-(8S,11S,14S)-3,18-bis(2-aminoethoxy)-N-(cyanomethyl)-11-methyl-14-[methyl-[rac-(2S)-4-amino-2-[[2-(4-hydroxyphenyl)-4,6-dimethyl-pyrimidine-5-carbonyl]amino]butanoyl]amino]-10,13-dioxo-9,12-diazatricyclo[13.3.1.12,6]icosa-1(18),2(20),3,5,15(19),16-hexaene-8-carboxamide]	0.55	4.4		
Cc1nc(-c2ccc(C(C)(C)C)cc2)ncc1C(=O)N[C@@H](CCN)C(=O)N(C)[C@@H]1C(=O)N[C@@H](C)C(=O)N[C@H](C(=O)NCC#N)Cc2ccc(OCCN)c(c2)-c2cc1ccc2O (racemic) [Compound 549, rac-(8S,11S,14S)-3-(2-aminoethoxy)-N-(cyanomethyl)-18-hydroxy-11-methyl-14-[methyl-[rac-(2S)-4-amino-2-[[2-(4-tert-butylphenyl)-4-methyl-pyrimidine-5-carbonyl]amino]butanoyl]amino]-10,13-dioxo-9,12-diazatricyclo[13.3.1.12,6]icosa-1(18),2(20),3,5,15(19),16-hexaene-8-carboxamide]	0.035	0.21		
Cc1nc(-c2ccc(C(C)(C)C)cc2)nc(C)c1C(=O)N[C@@H](CCN)C(=O)N(C)[C@@H]1C(=O)N[C@@H](C)C(=O)N[C@H](C(=O)NCC#N)Cc2ccc(OCCN)c(c2)-c2cc1ccc2O (racemic) [Compound 553, rac-(8S,11S,14S)-3-(2-aminoethoxy)-N-(cyanomethyl)-18-hydroxy-11-methyl-14-[methyl-[rac-(2S)-4-amino-2-[[2-(4-tert-butylphenyl)-4,6-dimethyl-pyrimidine-5-carbonyl]amino]butanoyl]amino]-10,13-dioxo-9,12-diazatricyclo[13.3.1.12,6]icosa-1(18),2(20),3,5,15(19),16-hexaene-8-carboxamide]	0.055	0.21		
CCCCCOc1ccc(-c2nc(C)c(C(=O)N[C@@H](CCN)C(=O)N(C)[C@@H]3C(=O)N[C@@H](C)C(=O)N[C@H](C(=O)O)Cc4ccc(OCCN)c(c4)-c4cc3ccc4OCCN)c(C)n2)cc1 (racemic) [Compound 638, rac-(8S,11S,14S)-3,18-bis(2-aminoethoxy)-11-methyl-14-[methyl-[rac-(2S)-4-amino-2-[[4,6-dimethyl-2-(4-pentoxyphenyl)pyrimidine-5-carbonyl]amino]butanoyl]amino]-10,13-dioxo-9,12-diazatricyclo [13.3.1.12,6]icosa-1(18),2(20),3,5,15(19), 16-hexaene-8-carboxylic acid]			0.19	0.22
CCC1(Oc2ccc(-c3nc(C)c(C(=O)N[C@@H](CCN)C(=O)N(C)[C@@H]4C(=O)N[C@@H](C)C(=O)N[C@H](C(=O)O)Cc5ccc(OCCN)c(c5)-c5cc4ccc5OCCN)c(C)n3)cc2)CC1 (racemic) [Compound 639, rac-(8S,11S,14S)-3,18-bis(2-aminoethoxy)-11-methyl-14-[methyl-[rac-(2S)-4-amino-2-[[2-[4-(1-ethylcyclopropoxy)phenyl]-4,6-dimethyl-pyrimidine-5-carbonyl]amino]butanoyl]amino]-10,13-dioxo-9,12-diazatricyclo [13.3.1.12,6]icosa-1(18),2(20),3,5,15(19), 16-hexaene-8-carboxylic acid]			0.75	0.38

Second part, led by results:

MIC ([1]; Table 6) [µM]	MIC [2, 3] [µM]	SMILES	MIC ([1]; Table 8) [µM]	MIC [2, 4] [µM]
0.047	0.25	Cc1nc(-c2ccc3c(c2)CCC3(C)C)nc(C)c1C(=O)N[C@@H](CCN)C(=O)N(C)[C@@H]1C(=O)N[C@@H](C)C(=O)N[C@H](C(=O)NCC#N)Cc2ccc(O)c(c2)-c2cc1ccc2OCCN (racemic) [Compound 531, rac-(8S,11S,14S)-18-(2-aminoethoxy)-N-(cyanomethyl)-3-hydroxy-11-methyl-14-[methyl-[rac-(2S)-4-amino-2-[[2-(1,1-dimethylindan-5-yl)-4,6-dimethyl-pyrimidine-5-carbonyl]amino]butanoyl]amino]-10,13-dioxo-9,12-diazatricyclo[13.3.1.12,6]icosa-1(18),2(20),3,5,15 8-carboxamide]		
0.029	0.23	CCC(C)(C)c1ccc(-c2ncc(C(=O)N[C@@H](CCN)C(=O)N(C)[C@@H]3C(=O)N[C@@H](C)C(=O)N[C@H](C(=O)NCC#N)Cc4ccc(O)c(c4)-c4cc3ccc4OCCN)c(C)n2)cc1 (racemic) [Compound 535, rac-(8S,11S,14S)-18-(2-aminoethoxy)-N-(cyanomethyl)-3-hydroxy-11-methyl-14-[methyl-[rac-(2S)-4-amino-2-[[2-[4-(1,1-dimethylpropyl)phenyl]-4-methyl-pyrimidine-5-carbonyl]amino]butanoyl]amino]-10,13-dioxo-9,12-diazatricyclo[13.3.1.12,6]icosa-1(18),2(20),3,5,15(19),16-hexaene-8-carboxamide]		
0.063	0.35	Cc1nc(-c2ccc(C3(C)CC3)cc2)nc(C)c1C(=O)N[C@@H](CCN)C(=O)N(C)[C@@H]1C(=O)N[C@@H](C)C(=O)N[C@H](C(=O)NCC#N)Cc2ccc(O)c(c2)-c2cc1ccc2OCCN (racemic) [Compound 543, rac-(8S,11S,14S)-18-(2-aminoethoxy)-N-(cyanomethyl)-3-hydroxy-11-methyl-14-[methyl-[rac-(2S)-4-amino-2-[[4,6-dimethyl-2-[4-(1-methylcyclopropyl)phenyl]pyrimidine-5-carbonyl]amino]butanoyl]amino]-10,13-dioxo-9,12-diazatricyclo[13.3.1.12,6]icosa-1(18),2(20),3,5,15(19),16-hexaene-8-carboxamide]		
0.047	0.46	Cc1nc(-c2ccc(C(C)(C)C)cc2)nc(N)c1C(=O)N[C@@H](CCN)C(=O)N(C)[C@@H]1C(=O)N[C@@H](C)C(=O)N[C@H](C(=O)NCC#N)Cc2ccc(O)c(c2)-c2cc1ccc2OCCN (racemic) [Compound 548, rac-(8S,11S,14S)-18-(2-aminoethoxy)-N-(cyanomethyl)-3-hydroxy-11-methyl-14-[methyl-[rac-(2S)-4-amino-2-[[4-amino-2-(4-tert-butylphenyl)-6-methyl-pyrimidine-5-carbonyl]amino]butanoyl]amino]-10,13-dioxo-9,12-diazatricyclo[13.3.1.12,6]icosa-1(18),2(20),3,5,15(19),16-hexaene-8-carboxamide]		
0.25	1.4	Cc1nc(-c2ccc(OC(C)C)cc2)nc(C)c1C(=O)N[C@@H](CCN)C(=O)N(C)[C@@H]1C(=O)N[C@@H](C)C(=O)N[C@H](C(=O)NCC#N)Cc2ccc(O)c(c2)-c2cc1ccc2OCCN (racemic) [Compound 552, rac-(8S,11S,14S)-18-(2-aminoethoxy)-N-(cyanomethyl)-3-hydroxy-11-methyl-14-[methyl-[rac-(2S)-4-amino-2-[[2-(4-isopropoxyphenyl)-4,6-dimethyl-pyrimidine-5-carbonyl]amino]butanoyl]amino]-10,13-dioxo-9,12-diazatricyclo[13.3.1.12,6]icosa-1(18),2(20),3,5,15(19),16-hexaene-8-carboxamide]		
0.046	0.73	COc1ccc2cc1-c1cc(ccc1OCCN)C[C@@H](C(=O)NCC#N)NC(=O)[C@H](C)NC(=O)[C@H]2N(C)C(=O)[C@H](CCN)NC(=O)c1cnc(-c2ccc(C(C)(C)C)cc2)nc1C (racemic) [Compound 558, rac-(8S,11S,14S)-3-(2-aminoethoxy)-N-(cyanomethyl)-18-methoxy-11-methyl-14-[methyl-[rac-(2S)-4-amino-2-[[2-(4-tert-butylphenyl)-4-methyl-pyrimidine-5-carbonyl]amino]butanoyl]amino]-10,13-dioxo-9,12-diazatricyclo[13.3.1.12,6]icosa-1(18),2(20),3,5,15(19),16-hexaene-8-carboxamide]		
